# Source: the supplement of paper PMC11061612
# Columns and labels:
# Experiment in all cases: combination Emax (second highest fraction inhibited in the dose matrix, 72 h); higher = more inhibition; extreme values may be limits of the assay
# NB10 (Neuroblastoma) = test system: NB10 (Neuroblastoma)
# Outline: (§1)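 Bliss excess equals the observed combination effect minus the expected value EA + EB − EA·EB, where EA and EB are the effects of each agent alone. Combination Emax is the second-highest inhibition within the matrix. Inhibition was scaled from CellTiter-Glo 2.0 luminescence, with 0 set by vehicle wells and 1 by blank wells, after 72 hours of two-drug dosing of cells plated in 1536-well plates.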
# [1] = test system: NCI-H2085 (Non-Small Cell Lung Carcinoma)
# Outline: as §1
# [2] = test system: KURAMOCHI (Ovarian Carcinoma)
# Outline: as §1
# 42-MG-BA (Glioblastoma) = test system: 42-MG-BA (Glioblastoma)
# Outline: as §1
# ES4 (Ewing's Sarcoma) = test system: ES4 (Ewing's Sarcoma)
# Outline: as §1
# [3] = test system: TCCSUP (Bladder Carcinoma)
# Outline: as §1
# [4] = test system: SK-ES-1 (Ewing's Sarcoma)
# Outline: as §1
# T98G (Glioblastoma) = test system: T98G (Glioblastoma)
# Outline: as §1
# HOS (Osteosarcoma) = test system: HOS (Osteosarcoma)
# Outline: as §1
# [5] = test system: Daoy (Other Solid Carcinomas)
# Outline: as §1
# [6] = test system: Hs-578-T (Breast Carcinoma)
# Outline: as §1
# [7] = test system: Ramos-2G6-4C10 (Burkitt's Lymphoma)
# Outline: as §1
# [8] = test system: CCRF-CEM (T-Lymphoblastic Leukemia)
# Outline: as §1
# [9] = test system: HCC-78 (Lung Adenocarcinoma)
# Outline: as §1
# [10] = test system: ME-1 (Acute Myeloid Leukemia)
# Outline: as §1
# [11] = test system: DEL (T-Cell Non-Hodgkin's Lymphoma)
# Outline: as §1
# [12] = test system: HO-1-N-1 (Oral Cavity Carcinoma)
# Outline: as §1
# [13] = test system: HT-1376 (Bladder Carcinoma)
# Outline: as §1
# [14] = test system: RO82-W-1 (Thyroid Gland Carcinoma)
# Outline: as §1
# [15] = test system: UM-UC-3 (Bladder Carcinoma)
# Outline: as §1
SMILES,combination Emax (NB10 (Neuroblastoma)),combination Emax [1],combination Emax [2],combination Emax (42-MG-BA (Glioblastoma)),combination Emax (ES4 (Ewing's Sarcoma)),combination Emax [3],combination Emax [4],combination Emax (T98G (Glioblastoma)),combination Emax (HOS (Osteosarcoma)),combination Emax [5],combination Emax [6],combination Emax [7],combination Emax [8],combination Emax [9],combination Emax [10],combination Emax [11],combination Emax [12],combination Emax [13],combination Emax [14],combination Emax [15]
"COc1cccc(OCCCN)c1-c1cc(Nc2cnc(C#N)cn2)n[nH]1 [Prexasertib] + CN(C)CCCOc1ccc(-c2ccc3ncc4c(c3c2)n(C2CCOCC2)c(=O)n4C)cn1 [AZD0156] (first compound max 1 µM, 7x7, partner max 1 µM)",0.928,0.92,0.706,0.937,0.912,0.689,0.948,0.899,0.854,0.958,0.942,1,1,0.685,0.622,1,0.913,0.471,0.572,0.537
"COc1cccc(OCCCN)c1-c1cc(Nc2cnc(C#N)cn2)n[nH]1 [Prexasertib] + C[C@@H]1COCCN1C2=NC(=NC(=C2)C3(CC3)[S@](=N)(=O)C)C4=C5C=CNC5=NC=C4 [AZD6738] (first compound max 1 µM, 7x7, partner max 10 µM)",0.863,0.872,0.647,0.904,0.879,0.712,0.944,0.905,0.902,0.956,0.912,1,1,0.744,0.633,1,0.898,0.503,0.441,0.615
"COc1cccc(OCCCN)c1-c1cc(Nc2cnc(C#N)cn2)n[nH]1 [Prexasertib] + Cc1cc2ncnn2cc1Nc1ncc2c(n1)n(C1CCOCC1)c(=O)n2C [AZD7648] (first compound max 1 µM, 7x7, partner max 10 µM)",0.918,0.825,0.672,0.908,0.93,0.704,0.964,0.893,0.826,0.965,0.925,1,1,0.736,0.622,1,0.927,0.571,0.45,0.56
"COc1cccc(OCCCN)c1-c1cc(Nc2cnc(C#N)cn2)n[nH]1 [Prexasertib] + O=C(c1cc(Cc2n[nH]c(=O)c3ccccc23)ccc1F)N1CCN(C(=O)C2CC2)CC1 [Olaparib] (first compound max 1 µM, 7x7, partner max 10 µM)",0.797,0.587,0.68,0.908,0.887,0.731,1,0.757,0.854,0.983,0.925,1,1,0.718,0.61,1,0.938,0.479,0.45,0.629
"COc1cc2c(cc1OCCCCCOc1cc3c(cc1OC)C(=O)N1C=C(C)C[C@H]1C=N3)N=C[C@@H]1CC(C)=CN1C2=O [SG3199] + O=C(c1cc(Cc2n[nH]c(=O)c3ccccc23)ccc1F)N1CCN(C(=O)C2CC2)CC1 [Olaparib] (first compound max 0.001 µM, 7x7, partner max 10 µM)",0.348,0.059,0.129,0.247,0.566,0.162,0.917,0.114,0.105,0.42,0.256,0,0.257,0.101,0.163,0.597,0.103,0.121,0.17,0.132
"CCc1c2c(nc3ccc(O)cc13)-c1cc3c(c(=O)n1C2)COC(=O)[C@]3(O)CC [SN-38] + CN(C)CCCOc1ccc(-c2ccc3ncc4c(c3c2)n(C2CCOCC2)c(=O)n4C)cn1 [AZD0156] (first compound max 0.3 µM, 7x7, partner max 1 µM)",0.829,0.221,0.659,1,0.947,0.743,1,0.546,0.893,1,0.635,0.98,1,0.924,0.571,1,1,0.118,0.46,0.978
"CCc1c2c(nc3ccc(O)cc13)-c1cc3c(c(=O)n1C2)COC(=O)[C@]3(O)CC [SN-38] + O=C(c1cc(Cc2n[nH]c(=O)c3ccccc23)ccc1F)N1CCN(C(=O)C2CC2)CC1 [Olaparib] (first compound max 0.3 µM, 7x7, partner max 10 µM)",0.866,0.132,0.651,1,0.767,0.665,1,0.632,0.96,0.971,0.709,0.996,1,0.898,0.497,1,1,0.0829,0.469,0.985
